These are literature values, as cited in patent publication US9629386B2, “Nutrition composition” (AJINOMOTO CO., INC., priority 2008, dated 2017).

This series relates to CRP and nutrition condition. The note with it: 1.2 g to 11 dialysis patients for 12 weeks.

As to ω-3 fatty acid, the CRP entry was “did not decrease CRP” and the nutrition condition result is “did not improve nutrition condition”.
